Data as given in patent publication US11446290B2, “Treatment of pain with serotonin-3 receptor agonist” (priority 2017, dated 2022).

Experiments:
Type in all cases: in vivo
Male ddY mice [1] = experiment: Experiment 3: therapeutic effects on pain derived from an emotional component (conditioned pain, saline injection at day 4); settings: for therapeutic effects on pain derived from an emotional component: experiments using a similar method, dose not given; for therapeutic effect on pain derived from an emotional component: foot licking of uninjected foot and biting for 5 minutes, FIG. 3
Male ddY mice [2] = experiment: Experiment 4: effect on amount of activity (supermex); settings: measured for 5 minutes after 30 minutes, FIG. 4
From the text: The following Experiments 1 to 5 have been carried out according to the method described in literatures (M Nakamura-Kitamura et al. Brain Research 1406 (2011), 8-17; and M Nakamura-Kitamura et al. Pain Research 27 (2012), 153-164) with minor modifications.
Male ddY mice of 5 weeks old (Japan SLC) were used in the experiments. Regarding the environment context as external senses and sensory stimuli such as tactile sense, visual sense, and feeling, a black cylindrical polypropylene box (diameter: 9.5 cm, height: 7 cm, with a round petri dish having a diameter of 8.5 cm at the bottom) and a translucent polypropylene box (14 cm (length)×9.5 cm (width)×5 cm (height), with a reticular plate at the floor) were used.
In order to study the effect of Compound A on the amount of activity, Compound A (5 mg/kg or 10 mg/kg) or vehicle (i.e., saline comprising 5% DMSO) was intraperitoneally administered to each mouse, and after 30 minutes, the amount of activity of the mouse was measured for 5 minutes using supermex (Muromachi Kikai Co., Ltd.). In the experiment, the vehicle administration group consisted of 7 mice, the Compound A (5 mg/kg) administration group consisted of 7 mice, and the Compound A (10 mg/kg) administration group consisted of 6 mice.

Male ddY mice [3] = experiment: Experiment 1: therapeutic effects on pain, foot licking and biting after formalin administration
Male ddY mice [4] = experiment: Experiment 5: therapeutic effects on acute pain, formalin test phase 1 and phase 2; settings: 1, 5, 10 mg/kg i.p. 30 minutes before formalin

SMILES: Cc1[nH]c2ccc(O)cc2c1CCN.Cl [Compound F, 2-methyl-5-hydroxytryptamine hydrochloride]
- therapeutic effects on pain derived from an emotional component (Male ddY mice [1]): showed therapeutic effects

SMILES: Cl.N=C(N)NC(=N)Nc1ccccc1 [Compound C, 1-phenylbiguanide hydrochloride]
- therapeutic effects on pain derived from an emotional component (Male ddY mice [1]): showed therapeutic effects

SMILES: Cl.Cn1cc(C(=O)C(=O)N[C@H]2CN3CCC2CC3)c2ccccc21 [G, (R)—N-(1-azabicyclo[2.2.2]oct-3-yl)-2-(1-methyl-1H-indol-3-yl)-2-(1-methyl-1H-indol-3-yl)-2-oxoacetamide hydrochloride]
- therapeutic effects on pain derived from an emotional component (Male ddY mice [1]): showed therapeutic effects

SMILES: NC1CCN(c2cccc(Cl)n2)CC1 [Compound A, 1-(6-chloropyridin-2-yl)piperidin-4-amine]
- effect on the amount of activity (Male ddY mice [2]; 5 mg/kg intraperitoneal): no effect
- effect on the amount of activity (Male ddY mice [2]; 10 mg/kg intraperitoneal): no effect
- foot licking and biting caused by formalin (Male ddY mice [3]; 5 mg/kg intraperitoneally 30 minutes before formalin (0.67%, 20 μL), measured for 5 minutes, FIG. 1): significantly suppress
- therapeutic effect on pain compared to existing drugs (Male ddY mice [3]; mouse, in vivo): more excellent therapeutic effect on pain as compared to the existing drugs
- therapeutic effect on pain derived from an emotional component (Male ddY mice [1]; 5 mg/kg intraperitoneally 30 minutes before saline at day 4): very strong therapeutic effect
- therapeutic effect on pain derived from an emotional component (Male ddY mice [1]; 10 mg/kg intraperitoneally 30 minutes before saline at day 4): very strong therapeutic effect
- therapeutic effect on pain derived from an emotional component compared to each existing drug (Male ddY mice [1]; mouse, in vivo): significantly excellent therapeutic effect as compared to each existing drug
- foot licking and biting caused by formalin, phase 1 (Male ddY mice [4]; 0 to 5 minutes after formalin, FIG. 5): dose-dependently and significantly suppress
- foot licking and biting caused by formalin, phase 2 (Male ddY mice [4]; 5 to 30 minutes after formalin, FIG. 6): dose-dependently and significantly suppress

SMILES: Cl.N=C(N)NC(=N)Nc1cccc(Cl)c1 [Compound B, m-chlorophenylbiguanide hydrochloride]
- therapeutic effects on pain derived from an emotional component (Male ddY mice [1]): showed therapeutic effects
